The subject of data set [1] is polymorphonuclear leukocytes. The following applies: U.S. Pat. No. 4,636,507; cited from earlier work.
A further data set concerns JR-CSF strain of HIV-1. Put plainly: HIV-1 JR-CSF infection of human peripheral blood lymphocytes (p24 antigen ELISA). Type of data set: cell-based. The following applies: JR-CSF HIV-1, FIG. 22. How it is done: 3556, to prevent promotion of fresh isolates of JR-CSF strain of HIV-1 infection of human peripheral blood lymphocytes (PBL).
In a protocol for infecting a PBL cell suspension, JR-CSF HIV-1 was clarified at low-speed centrifugation (2,000-3,000 rpm) or filtration and stored in aliquots at -70° C. To maintain consistent titers, HIV-1 aliquots were not subjected to repeated freezing and thawing and any remainder was discarded. Virus aliquots were thawed at room temperature or under cold running water for more rapid thawing and maintained in ice after thawing. Just prior to infection of PBL cells, the supernatant or dilution were warmed to room temperature.
Human PBL cells taken from a suitable donor were centrifuged down at 1000 rpm for 5-10 minutes at room temperature. While cells were spinning, the virus inoculum was prepared in medium by adding 10 μg/ml Polybrene®. The centrifuged cells were resuspended in virus inoculum, using 1 ml of virus inoculum per 10^7 cells. A more efficient HIV-1 infection is obtained with smaller amounts of inoculum. The cells were incubated at 37° C. in the presence of virus inoculum for 2 hours, shaking the suspension every half hour. After 2 hours, the suspension was spun down, the virus inoculum removed and the cells were washed with 10 ml of fresh media. […]
For orientation: In an ELISA, binding on a coated surface is turned into a signal by an enzyme label.

Data set [2] deals with Balb/3T3 cells. Put plainly: Viability (cytotoxicity) assay of Balb/3T3 cells with BCECF. Format: cell-based. Conditions: at the concentrations at which the compounds inhibit proliferation; vs control value of 100%; FIGS. 3 and 5. As for the experimental part: In conjunction with the Balb/3T3 proliferation assay, a related viability assay was conducted to assess the cytotoxicity of compounds which inhibit proliferation in this system. The assay protocol was identical to that performed above except that tritiated thymidine was not added after the 24 hour incubation with PDGF. In this cytotoxicity assay, after incubating the cells, a 10 μM solution of BCECF was added and the cells were incubated for 30 minutes at 37° C. Following this incubation, BCECF was replaced with PBS and the plate read for fluorescence in a Millipore cytofluorometer. Data obtained was plotted as a percent of control versus concentration of inventive compound tested. FIGS. 3 and 5 represent the results of this viability assay, for compounds nos. 3556 and 4500, respectively.

For data set [3], the system named is Balb/3T3 cells. Put plainly: PDGF-induced proliferation of Balb/3T3 cells (tritiated thymidine). Type of data set: cell-based. The following applies: Mus musculus, BALB/3T3, 24 h; PDGF-stimulated; FIGS. 2 and 4; read-out: concentrations inhibiting proliferation of Balb/3T3 cells stimulated by PDGF. How it is done: Disregulated PDGF-proliferative response has been linked to a variety of diseases, including, e.g., restenosis, atherosclerosis, fibrosis, and tumor cell angiogenesis. Balb/3T3 cells respond vigorously to PDGF stimulation, and are useful in vitro models for further study of PDGF-induced proliferation.
Balb/3T3 cells were plated in low serum-containing medium for 24 hours prior to stimulation with various concentrations of inventive compounds nos. 3556 and 4500. PDGF was added at varying concentrations along with tritiated thymidine. The cells were allowed to incubate for one day, following addition of PDGF and thymidine. Twenty-four hours later, the cells were harvested and counted by liquid scintillation counting. FIGS. 2 and 4 report data for inventive compounds nos. 3556 and 4500, respectively, obtained in this proliferation assay. The results shown in each respective figure illustrate that inventive compounds nos.

The subject of data set [4] is HIV long terminal repeat (LTR) promotor. In words: Inhibition of reporter gene (alkaline phosphatase) expression directed by HIV-LTR promotor in 293-EBNA cells. Conditions: Human immunodeficiency virus 1; reporter gene directed by HIV-LTR promotor in 293-EBNA cells; FIGS. 17, 19, 21. Format: cell-based. From the text:
This example is an assay used to measure anti-viral activity of inventive compounds nos. […] This assay is predictive of anti-viral activity for retroviruses. Specifically,a plasmid construct, pHIV.AP, using the human immunodeficiency virus (HIV) long terminal repeat (LTR) promotor [derived from pU3R-III CAT (Sodroski et al. Science, Vol. 227, page 171, 1985) to direct the expression of secreted human placental alkaline phosphatase reporter gene and an expression vector for a 72 amino acids tat protein from HIV (Frankel et al., Cell, Vol. 55, pages 1189-1193, 1988) were transfected into a tumor cell line (e.g., 293-EBNA cells). The stably transfected cells were treated with various concentrations of the inventive compounds. The expression of the alkaline phosphatase (AP) reporter gene in the individual cultures was then measured by following the change in absorbance at A405 of cell conditioned media in the presence of a suitable substrate (e.g., ortho-nitrophenol phosphate). Berger et al., Gene, Vol. 66, pages 1-10, 1988.
A general note: A reporter such as luciferase makes a cellular process visible.

A short description of data set [5]: Viability of 293-EBNA cells (alamarBlue colorimetric assay). The following applies: human, 293-ebna cells; alamarBlue; FIGS. 18, 20, 21; read-out: LD50, 293-EBNA cells. Format: cell-based. How it is done: (§1) The effect of respective inventive compounds on the viability of 293-EBNA cells was measured by a colorimetric assay that uses the alamarBlue® dye (purchased from Alamar Biosciences, Inc.) to report cell proliferation, viability and cytotoxicity. This dye is an oxidation-reduction (Redox) indicator that changes color in response to chemical reduction of growth medium resulting from cell growth. The general procedure involves adding alamarBlue® in an amount equal to 10% of the culture volume, returning the culture to incubator for four hours, and measuring the absorbance at 570 nm after subtraction of background absorbance at 600 nm.
Background: Resazurin is reduced to fluorescent resorufin, in cell work by metabolically active cells.

The subject of the next data set is 293-EBNA cells. The data set is described as above. Type of data set: cell-based. As for the experimental part:
as §1

Another data set deals with PAPH. In words: PAPH inhibition / DAG production in TNF-stimulated human mesangial cells. Format: cell-based. Conditions: specific activation pathway that does not involve PI. An excerpt: These inventive compounds and pharmaceutical compositions are capable of, among other things, inhibiting subspecies of LPAAT and PAPH enzymes with substrate specificity for intermediates with 1,2-diunsaturated and 1-alkyl, 2-unsaturated subspecies. […] In contrast, the inventive compounds affect that subset of PAPH and LPAAT relating to substrates with unsaturated fatty acids other than arachidonate in the sn-2 position, not the housekeeping forms of these enzymes that serve the PI pathway.

Data set [6] concerns tumor necrosis factor, TNF. The following applies: cited from earlier work.
Data set [7] relates to CFU-GM in mouse femoral marrow. Conditions: in vivo.
Excerpt: Mouse spleen conditioned-medium, at a concentration of 2%, was used in this assay. The medium and semi-solid culture mix were procured from Stem Cell Technologies in Vancouver, BC.

Structures are written as SMILES. Like-named read-outs stand apart in the source and are kept apart here.

For orientation: IC50 means the concentration at which inhibition is half-maximal.

`CC(O)CCCCn1c(=O)c2c(ncn2C)n(C)c1=O` (centres unmarked) [M1, 1-(5-hydroxyhexyl)-3,7-dimethylxanthine]: in data set [1], the “chemotaxis in polymorphonuclear leukocytes” value was “enhance chemotaxis”.
`CCCCCCCCNCCCCCCCCCCCn1c(=O)c2c(ncn2C)n(C)c1=O` [compound no. 3556, 1-(11-octylaminoundecyl)-3,7-dimethylxanthine]: in the data set on JR-CSF strain of HIV-1 (1 μM), the “decrease of HIV-1 infection of PBL” value is recorded as “decreased infection by about two to three fold”. Besides, the “HIV-1 infection of PBL” value with JR-CSF strain of HIV-1 (10 and 20 μM) is given as “virtually eliminated viral infection”. Further, the “cytotoxicity to Balb/3T3 cells” value with Balb/3T3 cells [2] is “not cytotoxic to any cells”. The minimal effective concentration in the data set on Balb/3T3 cells [3] is less than 30 µM. The molecule further registered a half-inhibitory concentration (IC50) in data set [4] of approximately 2.5 µM. Also, the CC50 in data set [5] was approximately 12.5 µM. Further, the “concentration at which cytotoxicity becomes significant” value with 293-EBNA cells was more than 10 µM.
Regarding `CC(=O)CCCCn1c(=O)c2c(ncn2C)n(C)c1=O` [PTX, 1-(5-oxohexyl)-3,7-dimethylxanthine], the “inhibition of PAPH” value with PAPH is given as “blocks PAPH”. For the same molecule, the BMT-related complications result in [6] (co-administered PTX and GM-CSF, allogeneic bone marrow transplant patients) was “reduced BMT-related complications”. For the same molecule, the TNF levels result in [6] (co-administered PTX and GM-CSF, patients undergoing allogeneic bone marrow transplant) was “decreased levels of tumor necrosis factor, TNF”; in [6] (normal volunteers), “TNF levels were higher”. The “chemotaxis in polymorphonuclear leukocytes” value in data set [1] was “enhance chemotaxis”.
On to `O=c1[nH]cc(F)c(=O)[nH]1` [5-fluorouracil], for which, in data set [7], the “CFU-GM in mouse femoral marrow” value is “no CFU-GM were detectable”.

The values above are taken from patent publication US5801182A, “Amine substituted compounds” (Cell Therapeutics, Inc., priority 1995, dated 1998).
